In patent publication US20240025863A1, “SOS1 PROTEIN DEGRADERS, PHARMACEUTICAL COMPOSITIONS THEREOF, AND THEIR THERAPEUTIC APPLICATIONS” (BioTheryX, Inc., priority 2020, published 2024) one finds IC50 data, which are given here for 13 molecules.

What all share (assay type): cell-based
The test system of experiment [1] is H358 cells (G12C). As to the kind of experiment: Cell viability assay (CellTiter-Glo), H358 cells. The note with it: Homo sapiens, NCI-H358, 72 h; H358 cells, 3 days incubation, CellTiter-Glo luminescence; read-out: Inhibition of Cancerous Cells IC50 H358 (G12C). In a few lines:
(§1)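 3 d compound vs DMSO, 37 °C, 5% CO2; medium 2.5% FBS (RPMI 1640: H358, SW48; DMEM: Lovo, SW480). Seeding 2,000 (96-well) or 500 (384-well) cells/well, Lovo 4,000/1,000. Read-out: CellTiter-Glo luminescence.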

The test system of experiment [2] is Lovo cells (G13D). The experiment in a line: Cell viability assay (CellTiter-Glo), Lovo cells. The settings on record: Homo sapiens, 72 h; Lovo cells, 3 days incubation, CellTiter-Glo luminescence; read-out: Inhibition of Cancerous Cells IC50 Lovo (G13D). In a few lines: as §1
(ATP-based viability assays read luminescence as a measure of living cells.)

Experiment [3] relates to SW480 cells (G12V). The experiment in a line: Cell viability assay (CellTiter-Glo), SW480 cells. The settings on record: Homo sapiens, 72 h; SW480 cells, 3 days incubation, CellTiter-Glo luminescence; read-out: Inhibition of Cancerous Cells IC50 SW480 (G12V). In a few lines:
as §1

The test system of experiment [4] is SW48 cells (wt). As to the kind of experiment: Cell viability assay (CellTiter-Glo), SW48 cells. The note with it: Homo sapiens, 72 h; SW48 cells, 3 days incubation, CellTiter-Glo luminescence; read-out: Inhibition of Cancerous Cells IC50 SW48 (wt). In a few lines:
as §1

Experiment [5] deals with AsPC-1 cells (G12D). The experiment in a line: Cell viability assay (CellTiter-Glo), AsPC-1 cells. The note with it: Homo sapiens, ASPC1, 72 h, 3 days incubation, CellTiter-Glo luminescence, read-out: Inhibition of Cancerous Cells IC50 AsPC-1 (G12D). On the procedure: H358, H23, SW48, and AsPC-1 cells were cultured in RPMI 1640 media supplemented with 10% fetal bovine serum, streptomycin, and penicillin. Lovo and SW480 cells were cultured in DMEM media supplemented with 10% fetal bovine serum, streptomycin, and penicillin. The cell lines were plated in their respective medium supplemented with 2.5% fetal bovine serum, streptomycin, and penicillin. All cell lines were plated in white walled 96-well plates at 2,000 cells/well or 384-well plates at 500 cells/well, except Lovo, which were plated at 4,000 or 1,000 cells/well, respectively. The cells were incubated in DMSO (control) or a compound for 3 days at 37° C. under 5% CO2. A CELLTITER-GLO® reagent (100 μL) was then added to each well. After a 10 min incubation with shaking, luminescence was measured using an ENVISION® multimode plate reader.

pIC50: −log10 of the molar value.

Take `COc1cc2c(N[C@H](C)c3cccc(Br)c3)nc(C)nc2cc1OCCCCCCCCCCCCCOc1cc(-c2scnc2C)ccc1CNC(=O)[C@@H]1C[C@@H](O)CN1C(=O)[C@@H](NC(C)=O)C(C)(C)C` [Compound D14, (2S,4R)-1-((S)-2-Acetamido-3,3-dimethylbutanoyl)-N-(2-((13-((4-(((R)-1-(3-bromophenyl)ethyl)amino)-6-methoxy-2-methylquinazolin-7-yl)oxy)tridecyl)oxy)-4-(4-methyl-thiazol-5-yl)benzyl)-4-hydroxypyrrolidine-2-carboxamide]: the pIC50 (in general, the negative decadic logarithm of the IC50, by convention in mol/L) in experiment [1] is below 5.00; in experiment [2], 6.19; in experiment [3], 5.48; in experiment [4], below 5.00; in experiment [5] it was below 5.00.
`COc1cc2c(N[C@H](C)c3cccc(Br)c3)nc(C)nc2cc1OCCN1CCC(CN2CCC(c3cc(F)cc4c3CN(C3CCC(=O)NC3=O)C4=O)CC2)CC1` (stereo partly drawn) [Compound A65, 3-(4-(1-((1-(2-((4-(((R)-1-(3-Bromophenyl)ethyl)amino)-6-methoxy-2-methyl-quinazolin-7-yl)oxy)ethyl)piperidin-4-yl)methyl)piperidin-4-yl)-6-fluoro-1-oxoisoindolin-2-yl)-piperidine-2,6-dione]: the pIC50 in experiment [1] was 5.80; in experiment [2] it was 5.96; in experiment [3], 5.96; in experiment [4], 6.01; in experiment [5], 5.48.
On to `COc1cc2c(N[C@H](C)c3cccc(Br)c3)nc(C)nc2cc1OCCCCCCCCCCNc1cccc2c1CN(C1CCC(=O)NC1=O)C2=O` (stereo partly drawn) [Compound A62, 3-(4-((10-((4-(((R)-1-(3-Bromophenyl)ethyl)amino)-6-methoxy-2-methyl-quinazolin-7-yl)oxy)decyl)amino)-1-oxoisoindolin-2-yl)piperidine-2,6-dione], for which the pIC50 in experiment [1] was below 5.00; in experiment [2], 5.40; in experiment [3], 5.89; in experiment [4] it was 5.62; in experiment [5], below 5.00.
Take `COc1cc2c(N[C@H](C)c3cccc(Br)c3)nc(C)nc2cc1OCCCCN1CCN(C(=O)COc2cc3c(cc2F)C(=O)N(C2CCC(=O)NC2=O)C3)CC1` (stereo partly drawn) [Compound A29, 3-(5-(2-(4-(4-((4-(((R)-1-(3-Bromophenyl)ethyl)amino)-6-methoxy-2-methyl-quinazolin-7-yl)oxy)butyl)piperazin-1-yl)-2-oxoethoxy)-6-fluoro-1-oxoisoindolin-2-yl)-piperidine-2,6-dione]: the pIC50 was 5.17 in experiment [1]; 6.14 in experiment [2]; 5.24 in experiment [3]; 6.05 in experiment [4]; below 5.00 in experiment [5].
`CN[C@@H](C)C(=O)N[C@H](C(=O)N1C[C@@H](NC(=O)CCCCCCOc2cc3nc(C)nc(N[C@H](C)c4cccc(Br)c4)c3cc2OC)C[C@H]1C(=O)N[C@@H]1CCCc2ccccc21)C1CCCCC1` [Compound B5, (2S,4S)-4-(7-((4-(((R)-1-(3-bromophenyl)ethyl)amino)-6-methoxy-2-methyl-quinazolin-7-yl)oxy)heptanamido)-1-((S)-2-cyclohexyl-2-((S)-2-(methylamino)propanamido)-acetyl)-N—((R)-1,2,3,4-tetrahydronaphthalen-1-yl)pyrrolidine-2-carboxamide]: the pIC50 in experiment [1] was 6.19; in experiment [2] it was 6.11; in experiment [3], 6.36; in experiment [4], 6.12; in experiment [5], 5.82.
For the molecule `COc1cc2c(N[C@H](C)c3cccc(Br)c3)nc(C)nc2cc1OCCCCCCCCCCCCc1scc2c1CN(C1CCC(=O)NC1=O)C2=O` (stereo partly drawn) [Compound A64, 3-(1-(12-((4-(((R)-1-(3-Bromophenyl)ethyl)amino)-6-methoxy-2-methyl-quinazolin-7-yl)oxy)dodecyl)-4-oxo-4H-thieno[3,4-c]pyrrol-5(6H)-yl)piperidine-2,6-dione], the pIC50 in experiment [1] is below 5.00; in experiment [2], 5.59; in experiment [3], 5.51; in experiment [4], 5.92; in experiment [5] it was 5.26.
Taken in the same sequence, the figures for `COc1cc2c(N[C@H](C)c3cccc(Br)c3)nc(C)nc2cc1OCCN1CCN(CCN2CCC(c3cc(F)cc4c3CN(C3CCC(=O)NC3=O)C4=O)CC2)CC1` (stereo partly drawn) [Compound A66, 3-(4-(1-(2-(4-(2-((4-(((R)-1-(3-Bromophenyl)ethyl)amino)-6-methoxy-2-methyl-quinazolin-7-yl)oxy)ethyl)piperazin-1-yl)ethyl)piperidin-4-yl)-6-fluoro-1-oxoisoindolin-2-yl)piperidine-2,6-dione] were 5.10, 5.24, 5.01, 5.42 and below 5.00.
On to `COc1cc2c(N[C@H](C)c3cccc(Br)c3)nc(C)nc2cc1OCCCCCCCCCCCNc1cccc2nc(C)n(C3CCC(=O)NC3=O)c(=O)c12` (stereo partly drawn) [Compound A46, 3-(5-((11-((4-(((R)-1-(3-Bromophenyl)ethyl)amino)-6-methoxy-2-methyl-quinazolin-7-yl)oxy)undecyl)amino)-2-methyl-4-oxoquinazolin-3(4H)-yl)piperidine-2,6-dione], for which the pIC50 is below 5.00 in experiment [1]; 6.00 in experiment [2]; 6.14 in experiment [3]; 5.57 in experiment [4]; below 5.00 in experiment [5].
In the case of `COc1cc2c(N[C@H](C)c3cccc(Br)c3)nc(C)nc2cc1OCCN1CCN(CCN2CCC(c3cc4c(cc3F)C(=O)N(C3CCC(=O)NC3=O)C4)CC2)CC1` (stereo partly drawn) [Compound A67, 3-(5-(1-(2-(4-(2-((4-(((R)-1-(3-Bromophenyl)ethyl)amino)-6-methoxy-2-methyl-quinazolin-7-yl)oxy)ethyl)piperazin-1-yl)ethyl)piperidin-4-yl)-6-fluoro-1-oxoisoindolin-2-yl)piperidine-2,6-dione], the pIC50 was 5.77 in experiment [1]; 6.00 in experiment [2]; 5.57 in experiment [3]; 5.96 in experiment [4]; 5.68 in experiment [5].
The corresponding values for `COc1cc2c(N[C@H](C)c3cccc(Br)c3)nc(C)nc2cc1OCCCCCCC(=O)N1CCC(c2cc3c(cc2F)C(=O)N(C2CCC(=O)NC2=O)C3)CC1` (stereo partly drawn) [Compound A60, 3-(5-(1-(7-((4-(((R)-1-(3-Bromophenyl)ethyl)amino)-6-methoxy-2-methyl-quinazolin-7-yl)oxy)heptanoyl)piperidin-4-yl)-6-fluoro-1-oxoisoindolin-2-yl)piperidine-2,6-dione] are below 5.00, 5.37, 5.40, 5.42 and 5.08.
For `COc1cc2c(N[C@H](C)c3cccc(Br)c3)nc(C)nc2cc1OCCCCCCCCC(=O)N1CCC(c2cc(F)cc3c2CN(C2CCC(=O)NC2=O)C3=O)CC1` (stereo partly drawn) [Compound A61, 3-(4-(1-(9-((4-(((R)-1-(3-Bromophenyl)ethyl)amino)-6-methoxy-2-methyl-quinazolin-7-yl)oxy)nonanoyl)piperidin-4-yl)-6-fluoro-1-oxoisoindolin-2-yl)piperidine-2,6-dione], the pIC50 was below 5.00 in experiment [1]; 5.18 in experiment [2]; 5.28 in experiment [3]; 5.23 in experiment [4]; below 5.00 in experiment [5].
Regarding `COc1cc2c(N[C@H](C)c3cccc(Br)c3)nc(C)nc2cc1OCCCCCCCOc1cc(-c2scnc2C)ccc1CNC(=O)[C@@H]1C[C@@H](O)CN1C(=O)[C@@H](NC(C)=O)C(C)(C)C` [Compound D11, (2S,4R)-1-((S)-2-Acetamido-3,3-dimethylbutanoyl)-N-(2-((7-((4-(((R)-1-(3-bromophenyl)ethyl)amino)-6-methoxy-2-methylquinazolin-7-yl)oxy)heptyl)oxy)-4-(4-methylthiazol-5-yl)benzyl)-4-hydroxypyrrolidine-2-carboxamide], the pIC50 in experiment [1] was 5.80; in experiment [2], 5.59; in experiment [3], 5.92; in experiment [4] it was 5.23; in experiment [5], below 5.00.
Take `CN[C@@H](C)C(=O)N[C@H](C(=O)N1C[C@@H](NC(=O)CCCCCCCCCCCCOc2cc3nc(C)nc(N[C@H](C)c4cccc(Br)c4)c3cc2OC)C[C@H]1C(=O)N[C@@H]1CCCc2ccccc21)C1CCCCC1` [Compound B10, (2S,4S)-4-(13-((4-(((R)-1-(3-Bromophenyl)ethyl)amino)-6-methoxy-2-methyl-quinazolin-7-yl)oxy)tridecanamido)-1-((S)-2-cyclohexyl-2-((S)-2-(methylamino)propanamido)-acetyl)-N—((R)-1,2,3,4-tetrahydronaphthalen-1-yl)pyrrolidine-2-carboxamide]: the pIC50 in experiment [1] is 5.80; in experiment [2] it was 6.17; in experiment [3], 6.14; in experiment [4], 5.89; in experiment [5], 5.82.
